Experiments:
[1] = test system: mouse model of Bleomycin-induced pulmonary fibrosis; experiment: Masson staining of lungs (degree of fibrosis), Bleomycin-induced pulmonary fibrosis; assay type: in vivo, C57 mice; details: of 6 animals; A13 2 mg/kg, A13bGa1 5 mg/kg
Experimental: (§1) A. Modelling of a mouse model of Bleomycin-induced pulmonary fibrosis, and the schematic diagram of treatment. Mice were modelled with Bleomycin administered via tracheal instillation on day 0, and the treatment with intraperitoneal injection of the drug was started on day 4. The drug was administered for 3 consecutive days per week, followed by a 4-day withdrawal, for 4 weeks.
(§2) D. Representative results of HE and Masson staining of the pathological sections of lungs taken from different groups of mice after execution. Normal represents the saline tracheal instillation modelling control group; Vehicle represents the vehicle administration control group; A13bGa1 represents the prodrug treatment group; A13 represents the A1331852 treatment group. Scale bar: 500 μm.
(§3) All drugs were mixed in 85% physiological saline, 5% DMSO (Sigma, D8418) and 10% Solutol HS 15 (Sigma, 42966), and administered to mice by intraperitoneal (i.p.) injection. To treat the bleomycin-injured young mice, A13 (2 mg/kg), A13bGa1 (5 mg/kg), or an empty vehicle control was administered three consecutive days per week for four weeks. A1331852 (abbreviated as A13) was purchased from MCE.
(§4) Bleomycin-Induced Pulmonary Fibrosis
(§5) Bleomycin was purchased from Selleck. As previously reported (Bivas-Benita et al., Eur J Pharm Biopharm 61, 214-218 (2005)), a transtracheal injection of bleomycin (2 mg/kg) was performed to the young male C57 mice (8-10 weeks old) to induce lung fibrosis. Drug treatment was initiated four days after modelling, and the drug was administered three consecutive days per week for four consecutive weeks, after which the mice were executed for material collection.
Masson trichrome stain kit (Solarbio, G1340) was used to detect fibrosis in the lung tissue. The formalin-fixed, and paraffin-embedded lung sections were dewaxed with xylene, and then rehydrated with 100% alcohol, 95% alcohol and distilled water. The sections were then stained according to the manufacturer's instructions. Afterwards, the sections were rapidly dehydrated with 95% alcohol and 100% alcohol, cleaned with xylene and covered with the coverslips. Images were acquired using a bright-field optical microscope (10× eyepiece) (OLYMPUS, BX43), and the degree of fibrosis of the lung tissue was graded according to the intensity of staining (weakly positive, moderately positive, moderately strong positive, and very strong positive).

[2] = test system: HEF cells (primary human embryonic skin fibroblast), induced senescent with Etoposide; experiment: in vitro killing of induced senescent HEF cells (CCK-8); assay type: cell-based
Source text: C. Comparison of the killing effects of three Bcl-xL inhibitors on the induced senescent HEF cell model. HEF represents the isolated early generation uninduced HEF cell group; and HEF-ETO represents the senescent HEF cell group induced with Etoposide (ETO) in vitro.
(§6) Induction of the Cellular Senescence

[3] = test system: A549 cells (human non-small cell lung cancer cell), induced senescent with Cisplatin; experiment: in vitro killing of induced senescent A549 cells (CCK-8); assay type: cell-based
Source text: A. The killing results of some selected compounds in the in vitro compound library screening on the induced senescent A549 cell model. Wherein, MZ-1, dBET6, ARV-825, I-BET726, I-BET151, and INCB057643 are all BET inhibitors; A1331852 and A1155463 are novel Bcl-xL inhibitors; Dasatinib, Quercetin, Fisetin, Curcumin are the familiar active drugs or natural products.
B. Comparison of the killing effects of three Bcl-xL inhibitors on the induced senescent A549 cell model. A549 represents the normal uninduced A549 cell group; and A549-CDDP represents the senescent A549 cell group induced with Cisplatin (CDDP) in vitro.
as §6

[4] = test system: mouse model of Bleomycin-induced pulmonary fibrosis; experiment: lung specific gravity index in Bleomycin-induced pulmonary fibrosis; assay type: in vivo, C57 mice; details: i.p. four weeks; A13 2 mg/kg, A13bGa1 5 mg/kg; FIG. 5C
Experimental: as §1
C. Comparison of lung specific gravity index calculated for different groups of mice. After completion of drug administration according to the dosing protocol, the mice were executed and the lungs of the mice were taken and weighed to calculate the lung specific gravity index, lung index=the lung weight (g)/the body weight (g)×100%. A13 represents the A1331852 treatment group at a dose of 2 mg/kg; A13bGa1 represents prodrug treatment group at a dose of 5 mg/kg; VEH represents the vehicle treatment control group; and NC represents the saline tracheal instillation modelling control group. Each dot in the panel represents the result of the lung specific gravity index of 1 mouse, n=5 in the saline modelling control group, and n=6 in other groups. The statistical analysis was performed using unpaired T-test, ns indicates no statistical difference; with *p<0.05; and **p<0.01. […]

[5] = test system: mouse model of Bleomycin-induced pulmonary fibrosis; experiment: HE pathological changes in the lungs, Bleomycin-induced pulmonary fibrosis; assay type: in vivo, C57 mice; details: A13 2 mg/kg, A13bGa1 5 mg/kg; for inflammation and consolidation of the mouse lungs (HE pathology): i.p. four weeks, FIG. 5D and Table 1
Experimental: as §1, §2, §3, §4, §5
Histopathological Examination
All animals (including those found dead, dying, and euthanised) were autopsied, and the lung tissues were preserved. The lungs were separated, the fat and other tissues were removed, the surface fluid was absorbed using a filter paper, and the whole lungs were weighed (those found dead, dying, and euthanised) for calculation of the lung weight index. The right lung and bronchiole were fixed in 10% neutral buffered formalin solution, embedded in paraffin, sectioned, prepared into slices, and stained with HE for a histopathological and morphological observation of the lung. The degree of the lesions such as the inflammatory cell infiltration in the lung tissue were graded according to a 4-grade classification (slight, mild, moderate, severe) using a standard terminology for diagnosis and classification. The left lung tissue was clipped and stored temporarily below −60′C.

## Cc1c(-c2ccc(N3CCc4cccc(C(=O)Nc5nc6ccccc6s5)c4C3)nc2C(=O)O)cnn1CC12CC3CC(CC(C3)C1)C2 [Compound A13, 3-[1-(adamantan-1-ylmethyl)-5-methylpyrazol-4-yl]-6-{8-[(1,3-benzothiazol-2-yl)carbamoyl]-3,4-dihydro-1H-isoquinolin-2-yl}pyridine-2-carboxylic acid]
[1]
  degree of fibrosis, Masson staining: Moderately strong positive (+++): 1 number of animals
  degree of fibrosis, Masson staining: extremely strong positive (++++): 2 number of animals
  degree of fibrosis, Masson staining: moderately positive (++): 1 number of animals
  degree of fibrosis, Masson staining: not positive (−): 0 number of animals
  degree of fibrosis, Masson staining: weakly positive (+): 2 number of animals
[2]; HEF-ETO vs HEF, FIG. 1C
  selective killing effect on the senescent cells: selective killing effect on the senescent cells
[3]; A549-CDDP vs A549, FIG. 1B
  selective killing effect on the senescent cells: selective killing effect on the senescent cells
[3]; induced senescent A549 cell model, FIG. 1A
  senescent cell killing activity and selectivity, compound screening: good senescent cell killing activity and selectivity in vitro
[4]
  lung specific gravity index (lung weight/body weight×100%): no improvement in the lung index
[5]
  inflammation and consolidation of the mouse lungs (HE pathology): no improvement

## Cc1c(-c2ccc(N3CCc4cccc(C(=O)Nc5nc6ccccc6s5)c4C3)nc2C(=O)OCc2ccc(O[C@@H]3O[C@H](CO)[C@H](O)[C@H](O)[C@H]3O)c([N+](=O)[O-])c2)cnn1CC12CC3CC(CC(C3)C1)C2 [Compound A13bGa1]
[1]
  degree of fibrosis, Masson staining: Moderately strong positive (+++): 0 number of animals
  degree of fibrosis, Masson staining: extremely strong positive (++++): 0 number of animals
  degree of fibrosis, Masson staining: moderately positive (++): 1 number of animals
  degree of fibrosis, Masson staining: not positive (−): 3 number of animals
  degree of fibrosis, Masson staining: weakly positive (+): 2 number of animals
[2]; HEF cells, human skin-derived fibroblasts, FIG. 3B
  killing of the senescent cells, efficiency and selectivity: highly efficient and selective in killing the senescent cells
[3]; A549 cells, lung-derived, FIG. 3E
  killing of the senescent cells, efficiency and selectivity: highly efficient and selective in killing the senescent cells
[4]
  lung specific gravity index (lung weight/body weight×100%): recovered to the normal level
[5]
  inflammation and consolidation of the mouse lungs (HE pathology): significant improvement
[5]; of 6 animals
  Bleeding, alveolar/interstitial: mild (++): 0 number of animals
  Bleeding, alveolar/interstitial: moderate (+++): 0 number of animals
  Bleeding, alveolar/interstitial: negative (−): 3 number of animals
  Bleeding, alveolar/interstitial: slight (+): 3 number of animals
  Exudative oedema, alveolar: mild (++): 2 number of animals
  Exudative oedema, alveolar: moderate (+++): 1 number of animals
  Exudative oedema, alveolar: negative (−): 2 number of animals
  Exudative oedema, alveolar: severe (++++): 0 number of animals
  Exudative oedema, alveolar: slight (+): 1 number of animals
  The infiltration of the inflammatory cells: mild (++): 0 number of animals
  The infiltration of the inflammatory cells: moderate (+++): 1 number of animals
  The infiltration of the inflammatory cells: negative (−): 4 number of animals
  The infiltration of the inflammatory cells: slight (+): 1 number of animals
  Thickening and consolidation of the pulmonary septum: mild (++): 5 number of animals
  Thickening and consolidation of the pulmonary septum: moderate (+++): 0 number of animals
  Thickening and consolidation of the pulmonary septum: negative (−): 1 number of animals
  Thickening and consolidation of the pulmonary septum: severe (++++): 0 number of animals
  Thickening and consolidation of the pulmonary septum: slight (+): 0 number of animals

Source: US20260345582A1, “PRODRUG FOR ANTI-AGING RELATED DISEASES AND USE METHOD THEREOF” (Beijing SunCell Bio-Medical Co., Ltd., priority 2022, published 2026)
